From US20240116985A1, “STAPLED PEPTIDES AND METHODS THEREOF” (priority 2020, published 2024)
Values after ≈ are worked out from the molar mass of the structure shown. Where two headings read alike, the source gives them in different places.

Experiments:
[1] = target: T1, beta-catenin/TCF4 engagement (Homo sapiens, UniProt P35222); test: Nano-BRET target engagement assay (B-cat-Halo & TCF4-Luc in HEK293 cells); format: cell-based; conditions: for inhibition at 10 µM: HEK293, @ 10 uM, read-out: NanoBRET % inh @ 10 uM
T1 construct: expressed in transfected cells; host or cells: HEK293
T1 sequence (P35222 1-781): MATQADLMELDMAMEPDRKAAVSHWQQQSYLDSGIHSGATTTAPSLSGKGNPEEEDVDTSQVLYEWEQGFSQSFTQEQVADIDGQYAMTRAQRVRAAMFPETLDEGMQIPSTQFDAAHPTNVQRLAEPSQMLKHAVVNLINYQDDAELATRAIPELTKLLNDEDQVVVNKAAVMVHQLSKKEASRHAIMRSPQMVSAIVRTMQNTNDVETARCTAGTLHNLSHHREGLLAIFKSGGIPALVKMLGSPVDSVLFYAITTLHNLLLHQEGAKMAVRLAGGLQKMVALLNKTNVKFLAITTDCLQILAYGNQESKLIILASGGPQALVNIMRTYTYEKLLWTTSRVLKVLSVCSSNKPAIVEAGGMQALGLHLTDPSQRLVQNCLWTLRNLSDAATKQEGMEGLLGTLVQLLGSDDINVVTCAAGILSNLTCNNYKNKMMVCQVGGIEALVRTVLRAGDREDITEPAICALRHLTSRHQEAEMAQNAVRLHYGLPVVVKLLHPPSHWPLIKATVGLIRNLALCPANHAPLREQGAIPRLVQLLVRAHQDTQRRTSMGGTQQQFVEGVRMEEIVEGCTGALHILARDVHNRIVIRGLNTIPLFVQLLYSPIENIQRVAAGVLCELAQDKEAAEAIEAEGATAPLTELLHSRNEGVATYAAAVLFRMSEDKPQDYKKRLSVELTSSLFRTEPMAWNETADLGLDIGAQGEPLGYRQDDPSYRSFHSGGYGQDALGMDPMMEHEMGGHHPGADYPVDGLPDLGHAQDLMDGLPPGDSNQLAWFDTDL

[2] = CHI Log D procedure; format: physicochemical; conditions: for chromatographic logD: pH 7.4, CHI Log D; for CHI Log D: pH 7.4
[3] = Solubility in PBS; format: physicochemical
Method in brief: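 PBS sample ultracentrifuged; supernatant run on HPLC vs. 50 μM peptide in DMSO standard. Solubility = (PBS peak area / DMSO peak area) × 50 uM.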

[4] = target: T2, full-length beta-Catenin (Uniprot ID P35222) (Homo sapiens, UniProt P35222); test: Fluorescence polarization IC50 (beta-catenin / 5FAM-TCF4 10-53 competition); format: binding
T2 construct: 10 nM full-length beta-Catenin (Uniprot ID P35222)
T2 sequence (P35222 1-781): T1 sequence (P35222 1-781)

[5] = fluorescence polarization, read-out: beta-Catenin FP IC50
[6] = absolute IC50, read-out: NanoBRET Abs IC50

Row | Compound | IC50 ([1]; read-out: NanoBRET IC50) [nM] | chromatographic logD [2] | Solubility ([3]; Solubility (uM)) [µM] | IC50 [4, 5] [nM] | CHI Log D [2] | Solubility [3] [µM] | IC50 ([4]; read-out: FP EC50) [nM] | IC50 [1, 6] [nM] | IC50 ([1]; Abs IC50, read-out: NanoBRET Abs IC50) [nM] | IC50 ([1]; read-out: NanoBRET Abs IC50) [nM] | IC50 ([4]; read-out: beta-Catenin FP IC50) [nM] | inhibition at 10 µM [1] [%]
1 | CC(=O)N1CCC[C@]12CC=CCCCC1(CCCC=CCCCCCC[C@@](C)(C(=O)N[C@@H](Cc3ccsc3)C(=O)N[C@@H](Cc3csc4ccccc34)C(=O)N[C@@H](CCC(N)=O)C(N)=O)NC(=O)[C@H](CC(N)=O)NC(=O)[C@H](Cc3ccccc3)NC(=O)[C@H](C)NC(=O)[C@H](C)NC(=O)[C@H](CN(CC(=O)O)CC(F)(F)F)NC(=O)[C@H](CC(=O)O)NC1=O)NC(=O)[C@H](CC(C)(C)C)NC(=O)[C@H](CC(=O)O)NC2=O (stereo partly drawn) [I-704, Ac-PL3-Asp-Npg-B5-Asp-TfeGA-Ala-Ala-Phe-Asn-S8-3Thi-BztA-Gln-NH2] | 7900 | 2.75 | 42 (≈ 83.4 µg/mL) | 49 |  |  |  |  |  |  |  | 
2 | CC(=O)N1CCC[C@]12CC=CCCCC1(CCCC=CCCCCCC[C@@](C)(C(=O)N[C@@H](Cc3ccsc3)C(=O)N[C@@H](Cc3csc4ccccc34)C(=O)N[C@@H](CCC(N)=O)C(N)=O)NC(=O)[C@H](CC(N)=O)NC(=O)[C@H](Cc3ccccc3)NC(=O)[C@H](C)NC(=O)[C@H](C)NC(=O)[C@H](CN(CC(=O)O)CC(F)(F)F)NC(=O)[C@H](CC(=O)O)NC1=O)NC(=O)[C@H](CC1CCCCC1)NC(=O)[C@H](CC(=O)O)NC2=O (stereo partly drawn) [I-708, Ac-PL3-Asp-Cha-B5-Asp-TfeGA-Ala-Ala-Phe-Asn-S8-3Thi-BztA-Gln-NH2] | 11500 |  |  | 52 | 2.976 | 47 (≈ 94.6 µg/mL) | 52 |  |  |  |  | 
3 | CC(=O)N1CCC[C@]12CC=CCCCC1(CCCC=CCCCCCC[C@@](C)(C(=O)N[C@@H](Cc3ccccc3)C(=O)N[C@@H](Cc3csc4ccccc34)C(=O)N[C@@H](CCC(N)=O)C(=O)N[C@@H](C)C(N)=O)NC(=O)[C@H](CC(N)=O)NC(=O)[C@H](Cc3ccccc3)NC(=O)[C@H](C)NC(=O)[C@H](C)NC(=O)[C@H](CCC(=O)O)NC(=O)[C@H](CC(=O)O)NC1=O)NC(=O)[C@H](CC(C)C)NC(=O)[C@H](CC(=O)O)NC2=O (stereo partly drawn) [I-730, Ac-PL3-Asp-Leu-B5-Asp-Glu-Ala-Ala-Phe-Asn-S8-Phe-BztA-Gln-Ala-NH2] |  |  |  | 35 | 2.377 | 44 (≈ 85.4 µg/mL) | 35 | 11200 |  |  |  | 
4 | CC(=O)N1CCC[C@]12CC=CCCCC1(CCCC=CCCCCCC[C@@](C)(C(=O)N[C@@H](Cc3ccccc3)C(=O)N[C@@H](Cc3csc4ccccc34)C(=O)N[C@@H](CCC(N)=O)C(=O)N[C@H](C)C(N)=O)NC(=O)[C@H](CC(N)=O)NC(=O)[C@H](Cc3ccccc3)NC(=O)[C@H](C)NC(=O)[C@H](C)NC(=O)[C@H](CCC(=O)O)NC(=O)[C@H](CC(=O)O)NC1=O)NC(=O)[C@H](CC(C)C)NC(=O)[C@H](CC(=O)O)NC2=O (stereo partly drawn) [I-731, Ac-PL3-Asp-Leu-B5-Asp-Glu-Ala-Ala-Phe-Asn-S8-Phe-BztA-Gln-dAla-NH2] |  | 2.33 | 48 (≈ 93.1 µg/mL) | 34 |  |  |  | 11600 |  |  |  | 
5 | CC(=O)N1CCC[C@]12CC=CCCCC1(CCCC=CCCCCCC[C@@](C)(C(=O)N[C@@H](Cc3ccccc3)C(=O)N[C@@H](Cc3csc4ccccc34)C(=O)N[C@H](C(N)=O)[C@@H](C)O)NC(=O)[C@H](CC(N)=O)NC(=O)[C@H](Cc3ccccc3)NC(=O)[C@H](C)NC(=O)[C@H](C)NC(=O)[C@H](CCC(=O)O)NC(=O)[C@H](CC(=O)O)NC1=O)NC(=O)[C@H](CC(C)C)NC(=O)[C@H](CC(=O)O)NC2=O (stereo partly drawn) [I-749, Ac-PL3-Asp-Leu-B5-Asp-Glu-Ala-Ala-Phe-Asn-S8-Phe-BztA-Thr-NH2] |  |  |  | 40 | 2.472 | 45 (≈ 82.9 µg/mL) | 40 | 9000 |  |  |  | 
6 | CC(=O)N1CCC[C@]12CC=CCCCC1(CCCC=CCCCCCC[C@@](C)(C(=O)N[C@@H](Cc3ccccc3)C(=O)N[C@@H](Cc3csc4ccccc34)C(=O)N[C@@H](CO)C(N)=O)NC(=O)[C@H](CC(N)=O)NC(=O)[C@H](Cc3ccccc3)NC(=O)[C@H](C)NC(=O)[C@H](C)NC(=O)[C@H](CCC(=O)O)NC(=O)[C@H](CC(=O)O)NC1=O)NC(=O)[C@H](CC(C)C)NC(=O)[C@H](CC(=O)O)NC2=O (stereo partly drawn) [I-750, Ac-PL3-Asp-Leu-B5-Asp-Glu-Ala-Ala-Phe-Asn-S8-Phe-BztA-Ser-NH2] |  |  |  | 43 | 2.441 | 48 (≈ 87.7 µg/mL) | 43 | 7400 |  |  |  | 
7 | CC(=O)N1CCC[C@]12CC=CCCCC1(CCCC=CCCCCCC[C@@](C)(C(=O)N[C@@H](Cc3ccccc3)C(=O)N[C@@H](Cc3csc4ccccc34)C(=O)N[C@@H](CO)C(N)=O)NC(=O)[C@H](CC(N)=O)NC(=O)[C@H](Cc3ccccc3)NC(=O)[C@H](C)NC(=O)[C@H](C)NC(=O)[C@H](CCC(=O)O)NC(=O)[C@H](CC(=O)O)NC1=O)NC(=O)[C@H](CC(C)C)NC(=O)[C@H](CC(=O)O)NC2=O (stereo partly drawn) [I-751, Ac-PL3-Asp-Leu-B5-Asp-Glu-Ala-Ala-Phe-Asn-S8-Phe-BztA-Ser-NH2] |  |  |  | 29 | 2.513 | 48 (≈ 87.7 µg/mL) | 29 | 7100 |  |  |  | 
8 | CC(=O)N1CCC[C@]12CC=CCCCC1(CCCC=CCCCCCC[C@@](C)(C(=O)N[C@@H](Cc3ccccc3)C(=O)N[C@@H](Cc3csc4ccccc34)C(=O)N[C@@H](CC(N)=O)C(N)=O)NC(=O)[C@H](CC(N)=O)NC(=O)[C@H](Cc3ccccc3)NC(=O)[C@H](C)NC(=O)[C@H](C)NC(=O)[C@H](CCC(=O)O)NC(=O)[C@H](CC(=O)O)NC1=O)NC(=O)[C@H](CC(C)C)NC(=O)[C@H](CC(=O)O)NC2=O (stereo partly drawn) [I-753, Ac-PL3-Asp-Leu-B5-Asp-Glu-Ala-Ala-Phe-Asn-S8-Phe-BztA-Asn-NH2] |  |  |  | 14 | 2.432 | 50 (≈ 92.8 µg/mL) | 14 | 10000 | 10000 |  |  | 

Next, values leading:

Row | IC50 ([1]; read-out: NanoBRET IC50) [nM] | chromatographic logD [2] | Solubility ([3]; Solubility (uM)) [µM] | IC50 [4, 5] [nM] | CHI Log D [2] | Solubility [3] [µM] | IC50 ([4]; read-out: FP EC50) [nM] | IC50 [1, 6] [nM] | IC50 ([1]; Abs IC50, read-out: NanoBRET Abs IC50) [nM] | IC50 ([1]; read-out: NanoBRET Abs IC50) [nM] | IC50 ([4]; read-out: beta-Catenin FP IC50) [nM] | inhibition at 10 µM [1] [%] | Compound
9 |  |  |  |  | 2.004 | 50 (≈ 96.6 µg/mL) | 12 |  |  | 37200 | 12 |  | CC(=O)N1CCC[C@]12CC=CCCCC1(CCCC=CCCCCOC(=O)N3CC[C@@](C(=O)N[C@@H](Cc4ccsc4)C(=O)N[C@@H](Cc4csc5ccccc45)C(=O)N[C@@H](CCC(N)=O)C(N)=O)(C3)NC(=O)[C@H](CC(N)=O)NC(=O)[C@H](Cc3ccccc3)NC(=O)[C@H](C)NC(=O)[C@H](C)NC(=O)[C@H](CC(=O)O)NC(=O)[C@H](CC(=O)O)NC1=O)NC(=O)[C@H](CC(C)(C)C)NC(=O)[C@H](CC(=O)O)NC2=O (stereo partly drawn) [I-767, Ac-PL3-Asp-Npg-B5-Asp-Asp-Ala-Ala-Phe-Asn-PyrS3-3Thi-BztA-Gln-NH2]
10 |  |  |  |  | 2.092 | 47 (≈ 91.2 µg/mL) | 7 |  |  | > 20000 | 6 | 5.1 | CC(=O)N1CCC[C@]12CC=CCCCC1(CCCC=CCCCCOC(=O)N3CC[C@@](C(=O)N[C@@H](Cc4ccsc4)C(=O)N[C@@H](Cc4csc5ccccc45)C(=O)N[C@@H](Cc4c[nH]cn4)C(N)=O)(C3)NC(=O)[C@H](CC(N)=O)NC(=O)[C@H](Cc3ccccc3)NC(=O)[C@H](C)NC(=O)[C@H](C)NC(=O)[C@H](CC(=O)O)NC(=O)[C@H](CC(=O)O)NC1=O)NC(=O)[C@H](CC(C)(C)C)NC(=O)[C@H](CC(=O)O)NC2=O (stereo partly drawn) [I-775, Ac-PL3-Asp-Npg-B5-Asp-Asp-Ala-Ala-Phe-Asn-PyrS3-3Thi-BztA-His-NH2]
11 | 14400 | 2.15 |  |  |  | 50 (≈ 96.1 µg/mL) |  |  |  | 19800 | 5 | 24.5 | CC(=O)N1CCC[C@]12CC=CCCCC1(CCCC=CCCCOC(=O)N3CC[C@@](C(=O)N[C@@H](Cc4ccccc4)C(=O)N[C@@H](Cc4csc5ccccc45)C(=O)N[C@@H](Cc4c[nH]cn4)C(N)=O)(C3)NC(=O)[C@H](CC(N)=O)NC(=O)[C@H](Cc3ccccc3)NC(=O)[C@H](C)NC(=O)[C@H](C)NC(=O)[C@H](CC(=O)O)NC(=O)[C@H](CC(=O)O)NC1=O)NC(=O)[C@H](CC(C)(C)C)NC(=O)[C@H](CC(=O)O)NC2=O (stereo partly drawn) [I-777, Ac-PL3-Asp-Npg-B5-Asp-Asp-Ala-Ala-Phe-Asn-PyrS2-Phe-BztA-His-NH2]
12 |  | 2.04 | 43 (≈ 82.5 µg/mL) |  |  |  |  |  |  | 11200 | 8 |  | CC(=O)N1CCC[C@]12CC=CCCCC1(CCCC=CCCCOC(=O)N3CC[C@@](C(=O)N[C@@H](Cc4cccs4)C(=O)N[C@@H](Cc4csc5ccccc45)C(=O)N[C@@H](CCC(N)=O)C(N)=O)(C3)NC(=O)[C@H](CC(N)=O)NC(=O)[C@H](Cc3ccccc3)NC(=O)[C@H](C)NC(=O)[C@H](C)NC(=O)[C@H](CC(=O)O)NC(=O)[C@H](CC(=O)O)NC1=O)NC(=O)[C@H](CC(C)(C)C)NC(=O)[C@H](CC(=O)O)NC2=O (stereo partly drawn) [I-778, Ac-PL3-Asp-Npg-B5-Asp-Asp-Ala-Ala-Phe-Asn-PyrS2-2Thi-BztA-Gln-NH2]
